Source: publication PMC12255297 (Nucleic Acids Research, 2025)

Key:
[1] = biological target: T1, C. botulinum SAM-AMP lyase (Clostridium botulinum, UniProt A5I3U9)
T1 construct: gene CBO2178

[2] = biological target: T1, C. botulinum SAM-AMP lyase; remark: listed apart in the source

T1 sequence (A5I3U9 1-124 limits assumed): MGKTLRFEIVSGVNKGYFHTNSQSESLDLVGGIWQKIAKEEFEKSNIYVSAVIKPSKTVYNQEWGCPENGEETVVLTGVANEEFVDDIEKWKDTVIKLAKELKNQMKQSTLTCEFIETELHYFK

CSC[C@H]1O[C@@H](n2cnc3c(N)ncnc32)[C@H](O)[C@@H]1OP(=O)(O)OC[C@H]1O[C@@H](n2cnc3c(N)ncnc32)[C@H](O)[C@@H]1O [MTA-AMP]
electrophoretic mobility shift assay, native gel [1]: SAM-AMP lyase binds its product MTA-AMP, but not SAH-AMP or SFG-AMP

C[S+](CC[C@H](N)C(=O)O)C[C@H]1O[C@@H](n2cnc3c(N)ncnc32)[C@H](O)[C@@H]1OP(=O)(O)OC[C@H]1O[C@@H](n2cnc3c(N)ncnc32)[C@H](O)[C@@H]1O (some centres unmarked) [SAM-AMP]
HPLC and LC-MS of cleavage to MTA-AMP and homoserine lactone [2]: HPLC analysis and mass spectrometry confirmed that SAM-AMP was degraded, generating the previously observed MTA-AMP product
